In patent US5449676A, “Pyridazines” (priority 1991, dated 1995):
Where two headings read alike, the source gives them in different places.

Experiments:
[1] = test system: histamine-induced bronchospasm; assay: histamine-induced bronchospasm in anesthetized guinea pigs; type: in vivo; details: 20 μmol/kg; for inhibition in vivo at 20 µmol/kg: Cavia porcellus, iv
Experimental: One histamine spasm before administration of the substance was compared with several histamine spasms after administration of the substance. The test substances were administered intravenously (i.v.) and/or intrajejunally (i.j.).

[2] = test system: acetylcholine-induced bronchospasm; assay: protective effect against acetylcholine-induced bronchospasm in conscious guinea pigs; type: in vivo; details: oral, 30 minutes after administration, percentage of protected animals
Experimental: In addition, the bronchospasmolytic effect was tested on the "protective effect against acetylcholine-induced bronchospasm in conscious guinea pigs" model:
Guinea pigs (250-350 g) are exposed in a closed Plexiglass cylinder (volume […] ) to an acetylcholine mist (0.06% in 0.9% sodium chloride solution; Heyer Use 77 ultrasonic atomizer) before administration of the substance and twice at an interval of 20 minutes after administration of the substance. The time from the start of atomization to the onset of marked breathing difficulties (in some cases hypoxic convulsion in the lateral position) is measured and called the latency time. An increase in the latency time after administration of the substance to at least three times the average latency time before administration of the substance is regarded as a protective effect, and the number of protected animals in the group is determined. […]
[…] After 30 minutes, the animals are again exposed to the acetylcholine mist and the latency times are measured. An increase in the latency time to at least three times the length is regarded as a protective effect.

PDE III = molecular target: T1, PDE III (Homo sapiens, UniProt Q14432); assay: inhibition of PDE III isolated from human platelets; type: biochemical; details: negative logarithm of IC50, cAMP 0.5 μmol/l; for IC50: read-out: PDE III hum. platelets -lg[IC50 ] (converted)
T1 construct: PDE III isolated from human platelets; from tissue; host or cells: human platelets
Excerpt: (§1) The specific inhibition of phosphodiesterase IV (PDE IV=high-affinity cAMP-PDE which cannot be inhibited by cGMP, rolipram-sensitive) is regarded as particularly indicative of an expected bronchospasmolytic and/or antiinflammatory effect. The specificity of the inhibition is moreover described by the ratio [IC50 ]PDE-III /[IC50 ]PDE-IV (PDE III=high-affinity cAMP-PDE which can be inhibited by cGMP) [H. Hidaka et al., Adv. Cycl. Nucl. Res. 13, 145 (1984); TiPS 5, 237 (1984); R. Weishaar et al., J. Med. Chem. 28, (1985); S. A. Harrison et al., Molec. Pharmac. 29, 506 (1986); J. Klein-Tebbe et al., Allergologie 12, 12 (1989); C. Schudt et al., Allergologie 12, 12, (1989); C. Schudt et al., Agents and Action 1991 in press; C. D. Nicholson et al., TiPS 12, (1), 19 (1991)].
(§2) For this reason, the PDE inhibition by the compounds according to the invention was determined on a PDE III isolated from human platelets and on PDE IV isolated from human polymorphonuclear neutrophilic cells (PMNs) and from the dog trachea. Phosphodiesterases III and IV are isolated by chromatography as described by Polson et al., Biochem. Pharmacol. 31, 3403-3406 (1982).
(§3) The substances are dissolved and diluted further in DMSO. 2.1 μl samples from a series of solutions diluted up to 100 fold are mixed with 212 μl of reaction mixture. The reaction mixture contains Hepes (100 mmol/l), DTE (5 mmol/l), MgCl2 (5 mmol/l), CaCl2 (10 μmol/l), BSA fraction V 0.5 mg, ml, cAMP 0.5 μmol/l, 2,8-^3 H-cAMP 250,000 cpm/ml (0.3 μCi/ml, S.A. […]), SV (snake venom) 25 μg/212 μl of test mixture.

PDE IV [3] = assay: inhibition of PDE IV isolated from dog trachea; type: biochemical; details: for PDE IV dog trachea -lg[IC50 ]: negative logarithm of IC50, cAMP 0.5 μmol/l; for [IC50 ] PDE III/[IC50 ] PDE IV dog tr.: selectivity ratio, PDE III hum. platelets vs PDE IV dog trachea
Excerpt: as §1, §2, §3

PDE IV [4] = assay: inhibition of PDE IV isolated from human polymorphonuclear neutrophilic cells (PMNs); type: biochemical; details: for PDE IV hum. PMNs -lg[IC50 ]: negative logarithm of IC50, cAMP 0.5 μmol/l; for [IC50 ] PDE III/[IC50 ] PDE IV PMNs: selectivity ratio, PDE III hum. platelets vs PDE IV hum. PMNs
Excerpt: as §1, §2, §3

tracheal rings = assay: bronchospasmolytic effect on the chain of tracheal rings from guinea pigs in vitro; type: cell-based; details: for EC50: Cavia porcellus, negative logarithm of EC50 mol/l, 50% of maximum achievable relaxation, read-out: -lg[EC50 ] (converted); for [EC50 ] theophylline/[EC50 ] substance: ratio of EC50 values, theophylline vs substance
Experimental: The bronchospasmolytic effect of the compounds on the chain of tracheal rings from guinea pigs was tested in vitro as follows:
Thus, a complete dose-effect plot for the test substance is obtained over a period of 20 to 30 minutes. The particular relaxation is expressed as a percentage fraction of the maximum relaxation achievable by administration of (-)isoprenaline (10^-6 mol/l).

[5] = Cavia porcellus, 0.5 h, 100 μmol/kg
[6] = after 1 h, read-out: % inhibition after 1 h of the histamine-induced decrease in Vmax
[7] = average 0-1 h after administration, read-out: % inhibition (0-1 h) of the histamine-induced decrease in Vmax

T1 sequence (Q14432 whole entry): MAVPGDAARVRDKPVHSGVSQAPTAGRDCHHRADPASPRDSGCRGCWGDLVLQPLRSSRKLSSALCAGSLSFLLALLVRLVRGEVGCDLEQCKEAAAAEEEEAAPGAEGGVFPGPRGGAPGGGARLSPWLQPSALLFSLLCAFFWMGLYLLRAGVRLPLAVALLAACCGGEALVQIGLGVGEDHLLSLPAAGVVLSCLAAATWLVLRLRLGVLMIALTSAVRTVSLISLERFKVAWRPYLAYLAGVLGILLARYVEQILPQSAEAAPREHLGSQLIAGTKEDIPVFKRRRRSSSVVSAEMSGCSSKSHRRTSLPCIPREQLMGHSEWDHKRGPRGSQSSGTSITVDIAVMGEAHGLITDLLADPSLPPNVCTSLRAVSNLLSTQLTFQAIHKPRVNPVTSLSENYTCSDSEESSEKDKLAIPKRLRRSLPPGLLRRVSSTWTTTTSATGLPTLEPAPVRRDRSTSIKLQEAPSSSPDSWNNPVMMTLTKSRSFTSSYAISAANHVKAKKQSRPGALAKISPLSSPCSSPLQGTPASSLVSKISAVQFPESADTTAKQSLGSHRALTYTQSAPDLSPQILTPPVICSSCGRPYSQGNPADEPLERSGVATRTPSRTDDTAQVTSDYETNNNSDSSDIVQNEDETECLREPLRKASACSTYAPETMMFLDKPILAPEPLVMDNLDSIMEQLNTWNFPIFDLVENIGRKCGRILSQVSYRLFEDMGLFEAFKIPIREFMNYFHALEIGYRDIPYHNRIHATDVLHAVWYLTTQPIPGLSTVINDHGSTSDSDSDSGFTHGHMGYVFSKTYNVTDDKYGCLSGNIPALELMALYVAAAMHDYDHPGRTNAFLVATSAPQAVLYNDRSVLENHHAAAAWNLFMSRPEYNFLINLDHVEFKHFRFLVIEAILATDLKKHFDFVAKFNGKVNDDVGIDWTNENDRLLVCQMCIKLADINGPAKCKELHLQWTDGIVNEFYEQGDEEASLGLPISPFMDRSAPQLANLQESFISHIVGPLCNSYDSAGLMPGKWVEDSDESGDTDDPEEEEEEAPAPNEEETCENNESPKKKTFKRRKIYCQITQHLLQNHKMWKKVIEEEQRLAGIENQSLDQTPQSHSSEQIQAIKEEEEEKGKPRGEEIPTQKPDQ

Row | Compound | % inhibition after 1 h of the histamine-induced decrease in Vmax ([1]; i.v., after 1 h) [%] | % inhibition (0-1 h) of the histamine-induced decrease in Vmax ([1]; i.v., average 0-1 h after administration) [%] | % protective effect ([2]; 30 μmol/kg) [%] | % protective effect ([2]; 100 μmol/kg) [%] | % protective effect ([2]; 300 μmol/kg) [%] | PDE III hum. platelets -lg[IC50 ] (PDE III) | PDE IV dog trachea -lg[IC50 ] (PDE IV [3]) | [IC50 ] PDE III/[IC50 ] PDE IV dog tr. (PDE IV [3]) | PDE IV hum. PMNs -lg[IC50 ] (PDE IV [4]) | [IC50 ] PDE III/[IC50 ] PDE IV PMNs (PDE IV [4]) | responders at 30 µmol/kg ([2]; Cavia porcellus, 0.5 h, 30 μmol/kg) [%] | responders at 100 µmol/kg [2, 5] [%] | IC50 (PDE III) [µM] | EC50 (tracheal rings) [µM] | [EC50 ] theophylline/[EC50 ] substance (tracheal rings) | inhibition in vivo at 20 µmol/kg [1, 6] [%] | inhibition in vivo at 20 µmol/kg [1, 7] [%] | responders at 2 µmol/kg ([2]; Cavia porcellus, 0.5 h, 2 μmol/kg) [%] | responders at 4 µmol/kg ([2]; Cavia porcellus, 0.5 h, 4 μmol/kg) [%]
1 | 3-amino-6-(3-cyclopentyloxy-4methoxyphenyl)pyridazine [Serial No. 6] | 20 | 34 | 50 | 70 | 80 | < 4.0 | 6.48 | > 304 | 6.18 | > 151 | – | – | – | – | – | – | – | – | –
2 | COc1ccc(-c2ccc(N)nn2)cc1OCC(C)C [Serial No. 2, 3-amino-6-[4-methoxy-3-(2-methylpropoxy)phenyl]pyridazine] | – | – | – | – | – | – | < 5.0 | < 20.9 | – | – | 50 | 80 | 209 | – | – | – | – | – | –
3 | CCOc1cc(-c2ccc(N)nn2)ccc1OC(F)F [compound 10] | – | – | – | – | – | – | 5.37 | 52.5 | – | – | – | 50 | 224 | 8.32 | 16.2 | 44 | 38 | – | –
4 | CCOc1ccc(-c2ccc(N)nn2)cc1OC(F)F [compound 12] | – | – | – | – | – | – | 4.42 | 9.6 | – | – | – | 50 | 316 | 4.47 | 30.2 | – | – | – | –
5 | CCOc1ccc(-c2ccc(N)nn2)cc1OCC(C)C [compound 9] | – | – | – | – | – | – | 5.68 | 60.2 | – | – | – | 65 | 126 | 9.77 | 13.8 | 20 | 16 | – | –
6 | COc1cc(-c2ccc(N)nn2)ccc1OC(F)F [compound 11] | – | – | – | – | – | – | 5.09 | 22.9 | – | – | – | 80 | 195 | 4.9 | 27.6 | 26 | 30 | – | –
7 | COc1ccc(-c2ccc(N)nn2)cc1OC1CCCCCC1 [Serial No. 8, 3-amino-6-(3-cycloheptyloxy-4-methoxyphenyl)pyridazine] | – | – | – | – | – | – | 5.37 | 18.2 | – | – | – | – | 77.6 | – | – | – | – | – | –
8 | COc1ccc(-c2ccc(N)nn2)cc1OCC1CCC1 [compound 13] | – | – | – | – | – | – | 4.88 | 17.0 | – | – | – | 65 | 224 | – | – | – | – | – | –
9 | COc1cc(-c2ccc(N)[n+]([O-])n2)ccc1OC(F)F [compound 20] | – | – | – | – | – | – | 5.08 | 1.8 | 5.89 | 11.5 | – | – | 14.8 | 0.447 | 302 | 48 | 40 | 50 | –
10 | CCOc1cc(-c2ccc(N)[n+]([O-])n2)ccc1OC(F)F [compound 19] | – | – | – | – | – | – | 5.82 | 41.7 | 6.58 | 240 | – | – | 63.1 | 0.151 | 893 | 81 | 71 | – | 50
